Structures can show the parent of a compound that is named as a salt.

For the assay, the target named is T1, HiBiT tagged PARP14 (Homo sapiens, UniProt Q460N5).
T1 construct: engineered to contain a HiBiT tag on both alleles of the PARP14 gene; endogenous in cells; host or cells: Jurkat cells stably transfected with LgBiT (Promega), PARP14 locus edited by CRISPR/Cas9
T1 sequence (Q460N5 whole entry): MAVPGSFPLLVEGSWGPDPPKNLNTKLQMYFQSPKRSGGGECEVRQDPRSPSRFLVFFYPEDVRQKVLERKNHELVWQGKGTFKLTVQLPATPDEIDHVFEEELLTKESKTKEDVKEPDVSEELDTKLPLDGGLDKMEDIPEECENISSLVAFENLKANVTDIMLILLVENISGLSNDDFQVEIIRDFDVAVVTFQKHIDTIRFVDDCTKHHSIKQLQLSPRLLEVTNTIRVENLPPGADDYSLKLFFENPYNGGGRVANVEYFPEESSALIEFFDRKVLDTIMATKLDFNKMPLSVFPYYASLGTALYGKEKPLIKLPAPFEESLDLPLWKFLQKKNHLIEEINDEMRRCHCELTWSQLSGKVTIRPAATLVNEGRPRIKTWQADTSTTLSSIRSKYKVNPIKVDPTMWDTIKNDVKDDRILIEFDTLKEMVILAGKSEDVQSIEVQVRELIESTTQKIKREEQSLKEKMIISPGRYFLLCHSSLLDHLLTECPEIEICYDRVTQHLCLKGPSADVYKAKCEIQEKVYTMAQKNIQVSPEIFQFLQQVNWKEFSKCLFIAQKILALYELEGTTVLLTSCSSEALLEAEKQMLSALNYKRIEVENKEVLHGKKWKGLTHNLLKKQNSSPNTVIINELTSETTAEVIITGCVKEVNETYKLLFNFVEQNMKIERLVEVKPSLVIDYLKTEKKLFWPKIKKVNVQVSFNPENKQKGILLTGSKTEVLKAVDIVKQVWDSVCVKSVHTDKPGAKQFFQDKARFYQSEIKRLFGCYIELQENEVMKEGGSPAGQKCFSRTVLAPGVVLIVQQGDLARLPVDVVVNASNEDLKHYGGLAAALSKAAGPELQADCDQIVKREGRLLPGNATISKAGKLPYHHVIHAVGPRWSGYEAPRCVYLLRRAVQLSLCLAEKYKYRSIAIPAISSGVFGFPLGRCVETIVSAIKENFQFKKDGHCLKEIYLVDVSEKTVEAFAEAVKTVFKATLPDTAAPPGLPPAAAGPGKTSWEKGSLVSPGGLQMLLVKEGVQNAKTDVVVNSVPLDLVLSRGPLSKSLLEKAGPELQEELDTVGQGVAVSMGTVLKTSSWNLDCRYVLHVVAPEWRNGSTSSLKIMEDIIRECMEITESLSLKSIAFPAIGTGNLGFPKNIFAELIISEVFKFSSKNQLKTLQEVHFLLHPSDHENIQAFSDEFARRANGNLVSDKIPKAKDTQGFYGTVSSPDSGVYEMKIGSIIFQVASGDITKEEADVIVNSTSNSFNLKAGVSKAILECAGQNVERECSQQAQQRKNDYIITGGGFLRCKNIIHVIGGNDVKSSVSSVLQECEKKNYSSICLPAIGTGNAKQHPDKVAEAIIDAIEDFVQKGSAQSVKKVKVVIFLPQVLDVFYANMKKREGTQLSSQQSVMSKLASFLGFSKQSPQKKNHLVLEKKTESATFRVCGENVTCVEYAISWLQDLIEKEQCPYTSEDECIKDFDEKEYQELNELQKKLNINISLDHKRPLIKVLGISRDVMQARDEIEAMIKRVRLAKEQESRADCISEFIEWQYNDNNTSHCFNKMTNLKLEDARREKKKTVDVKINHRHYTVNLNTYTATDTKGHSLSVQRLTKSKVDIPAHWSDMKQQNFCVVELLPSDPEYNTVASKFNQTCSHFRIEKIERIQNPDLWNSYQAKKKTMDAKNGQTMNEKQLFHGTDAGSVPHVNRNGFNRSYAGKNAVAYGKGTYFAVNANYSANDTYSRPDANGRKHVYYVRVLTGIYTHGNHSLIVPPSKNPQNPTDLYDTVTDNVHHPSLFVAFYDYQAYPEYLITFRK
Description: HiBiT assay for the degradation of PARP14 (HiBiT tagged PARP14 in LgBiT expressing Jurkat cells, 2 or 24 hours). It counts as cell-based. Conditions: Assay B (Example B): HiBiT tagged PARP14 degradation in LgBiT expressing Jurkat cells, read-out: DC50. The method, then:
Jurkat cells stably transfected with LgBiT (Promega) were engineered to contain a HiBiT tag on both alleles of the PARP14 gene (Genbank Accession Number: NM_017554) via CRISPR/Cas9 editing. The HiBiT tag is an 11 amino acid tag created by Promega that associates with LgBiT protein to form the NanoLuc® tag on the C-terminus of PARP14. Clones were isolated and confirmed for the HiBiT tag via Sanger sequencing.
Degradation of PARP14 protein was assessed by measuring the luminescence of the HiBiT tag associating with the LgBiT protein as a proxy for the PARP14 protein.
Jurkat cells were diluted to 250,000 cells per mL and then added to assay plate (Corning 3574) using a Multidrop (Thermo Fisher) to add 20 μL per well of the 384 well plate, resulting in 5,000 cells per well. 20 nL of a dose response curve diluted in DMSO of each test compound was added to the cell plate using a Mosquito (TTP Labtech) and the plate was incubated at 37° C. for 2 or 24 hours. Assay plate was brought to room temperature then 5 μL per well of Live Cell Substrate (Promega) was added to the plate. Luminescence was measured on an Envision (Perkin Elmer).
The average DMSO was calculated from 32 wells containing 0.1% DMSO only in columns 12 and 24 of the assay plate. The % of DMSO values were calculated as described below: […]
The % of DMSO values were plotted as a function of compound concentration and the following 4-parameter fit was applied to derive the DC50 values:
where top, bottom, and Hill Coefficient are allowed to float. Y is the % of DMSO and X is the compound concentration.
DC50 data for the Example compounds is provided below in Table 2 (“+” is ≤0.03 μM; “++” is ≥0.03 μM).
(In general: The HiBiT peptide binds its large partner to form an active luciferase.)
With `O=C1CCN(c2ccc(C3CCN(CCN4CCC(COc5cc(F)c6c(=O)[nH]c(COC7CCOCC7)nc6c5)CC4)CC3)c(F)c2)C(=O)N1` [Example 204, 1-(3-fluoro-4-(1-(2-(4-(((5-fluoro-4-oxo-2-(((tetrahydro-2H-pyran-4-yl)oxy)methyl)-3,4-dihydroquinazolin-7-yl)oxy)methyl)piperidin-1-yl)ethyl)piperidin-4-yl)phenyl)dihydropyrimidine-2,4(1H,3H)-dione], the 50% degradation concentration (DC50) (in general, the concentration at which degradation of the target reaches its halfway point) was less than 30 nM.
As for `O=C1CCC(Nc2ccc(N3CC(N4CCN(CCOc5cc(F)c6c(=O)[nH]c(CSC7CCOCC7)nc6c5)CC4)C3)cc2)C(=O)N1` (stereo not drawn) [Example 130, 3-((4-(3-(4-(2-((5-fluoro-4-oxo-2-(((tetrahydro-2H-pyran-4-yl)thio)methyl)-3,4-dihydroquinazolin-7-yl)oxy)ethyl)piperazin-1-yl)azetidin-1-yl)phenyl)amino)piperidine-2,6-dione], the half-maximal degradation concentration (DC50) is less than 30 nM.
For `O=C1CCC(Nc2ccc(N3CC(N4CC(N5CCC(COc6cc(F)c7c(=O)[nH]c(CSC8CCOCC8)nc7c6)CC5)C4)C3)c(F)c2)C(=O)N1` (stereo not drawn) [Example 148, 3-((3-fluoro-4-(3-(4-(((5-fluoro-4-oxo-2-(((tetrahydro-2H-pyran-4-yl)thio)methyl)-3,4-dihydroquinazolin-7-yl)oxy)methyl)piperidin-1-yl)-[1,3′-biazetidin]-1′-yl)phenyl)amino)piperidine-2,6-dione formate], the DC50 was less than 30 nM.
Under `O=C1CCC(Nc2ccc(N3CCN(CCN4CCC(CNc5cc6nc(CSC7CCOCC7)[nH]c(=O)c6c(F)c5F)CC4)CC3)cc2)C(=O)N1` (stereo not drawn) [Example 129, 3-((4-(4-(2-(4-(((5,6-difluoro-4-oxo-2-(((tetrahydro-2H-pyran-4-yl)thio)methyl)-3,4-dihydroquinazolin-7-yl)amino)methyl)piperidin-1-yl)ethyl)piperazin-1-yl)phenyl)amino)piperidine-2,6-dione formate] stands less than 30 nM; under `O=C1CCC(Nc2ccc(-c3ccc(CCN4CCC(COc5cc(F)c6c(=O)[nH]c(CSC7CCOCC7)nc6c5)CC4)cn3)cc2)C(=O)N1` (stereo not drawn) [Example 132], less than 30 nM.
Regarding `O=C1CCC(NC(=O)c2ccc(N3CCN(CCN4CCC(COc5cc(F)c6c(=O)[nH]c(CSC7CCOCC7)nc6c5)CC4)CC3)cc2F)C(=O)N1` (stereo not drawn) [Example 93, N-(2,6-dioxopiperidin-3-yl)-2-fluoro-4-(4-(2-(4-(((5-fluoro-4-oxo-2-(((tetrahydro-2H-pyran-4-yl)thio)methyl)-3,4-dihydroquinazolin-7-yl)oxy)methyl)piperidin-1-yl)ethyl)piperazin-1-yl)benzamide], the 50% degradation concentration (DC50) was less than 30 nM.
For `Cn1nc(N2CCC(=O)NC2=O)c2ccc(C3CCN(CCN4CCC(COc5cc(F)c6c(=O)[nH]c(COC7CCOCC7)nc6c5)CC4)CC3)c(F)c21` [Example 205, 1-(7-fluoro-6-(1-(2-(4-(((5-fluoro-4-oxo-2-(((tetrahydro-2H-pyran-4-yl)oxy)methyl)-3,4-dihydroquinazolin-7-yl)oxy)methyl)piperidin-1-yl)ethyl)piperidin-4-yl)-1-methyl-1H-indazol-3-yl)dihydropyrimidine-2,4(1H,3H)-dione], the DC50 was less than 30 nM.
Consider `O=C1CCC(Nc2ccc(N3CCN(CC(=O)N4CCC(COc5cc(F)c6c(=O)[nH]c(CSC7CCOCC7)nc6c5)CC4)CC3)c(F)c2)C(=O)N1` (stereo not drawn) [Example 174, 3-((3-fluoro-4-(4-(2-(4-(((5-fluoro-4-oxo-2-(((tetrahydro-2H-pyran-4-yl)thio)methyl)-3,4-dihydroquinazolin-7-yl)oxy)methyl)piperidin-1-yl)-2-oxoethyl)piperazin-1-yl)phenyl)amino)piperidine-2,6-dione], for which the DC50 was less than 30 nM.
In the case of `Cn1nc(N2CCC(=O)NC2=O)c2cc(F)c(N3CCC(CN4CCC(COc5cc(F)c6c(=O)[nH]c(COC7CCOCC7)nc6c5)CC4)CC3)cc21` [Example 183, 1-(5-fluoro-6-(4-((4-(((5-fluoro-4-oxo-2-(((tetrahydro-2H-pyran-4-yl)oxy)methyl)-3,4-dihydroquinazolin-7-yl)oxy)methyl)piperidin-1-yl)methyl)piperidin-1-yl)-1-methyl-1H-indazol-3-yl)dihydropyrimidine-2,4(1H,3H)-dione], the 50% degradation concentration (DC50) is less than 30 nM.
Under `O=C1CCC(Nc2ccc(N3CCC(C(=O)N4CCC(N5CCC(COc6cc(F)c7c(=O)[nH]c(CCC8CCOCC8)nc7c6)CC5)CC4)CC3)c(F)c2)C(=O)N1` (stereo not drawn) [Example 175, 3-((3-fluoro-4-(4-(4-(((5-fluoro-4-oxo-2-(2-(tetrahydro-2H-pyran-4-yl)ethyl)-3,4-dihydroquinazolin-7-yl)oxy)methyl)-[1,4′-bipiperidine]-1′-carbonyl)piperidin-1-yl)phenyl)amino)piperidine-2,6-dione] stands less than 30 nM; under `O=C1CCC(Nc2ccc(N3CCC(N4CCC(COc5cc(F)c6c(=O)[nH]c(CCC7CCOCC7)nc6c5)CC4)CC3)c(F)c2)C(=O)N1` (single isomer, unassigned) [Example 117b, 3-((3-fluoro-4-(4-(((5-fluoro-4-oxo-2-(2-(tetrahydro-2H-pyran-4-yl)ethyl)-3,4-dihydroquinazolin-7-yl)oxy)methyl)-[1,4′-bipiperidin]-11′-yl)phenyl)amino)piperidine-2,6-dione], less than 30 nM; under `O=C1CCC(Nc2ccc(N3CCN(CCN4CCC(COc5ccc6c(=O)[nH]c(CSC7CCOCC7)nc6c5)CC4)CC3)c(F)c2)C(=O)N1` (stereo not drawn) [Example 206, 3-((3-fluoro-4-(4-(2-(4-(((4-oxo-2-(((tetrahydro-2H-pyran-4-yl)thio)methyl)-3,4-dihydroquinazolin-7-yl)oxy)methyl)piperidin-1-yl)ethyl)piperazin-1-yl)phenyl)amino)piperidine-2,6-dione], less than 30 nM.
Take `O=C1CCC(Nc2ccc(N3CCN(CCN4CCC(COc5cc(F)c6c(=O)[nH]c(CSC7CCOCC7)nc6c5)CC4)C(=O)C3)c(F)c2)C(=O)N1` (stereo not drawn) [Example 234, 3-((3-fluoro-4-(4-(2-(4-(((5-fluoro-4-oxo-2-(((tetrahydro-2H-pyran-4-yl)thio)methyl)-3,4-dihydroquinazolin-7-yl)oxy)methyl)piperidin-1-yl)ethyl)-3-oxopiperazin-1-yl)phenyl)amino)piperidine-2,6-dione]: the half-maximal degradation concentration (DC50) was less than 30 nM.
With `O=C1CCC(Nc2ccc(N3CCC(N4CC(C(=O)N5CCC(COc6cc(F)c7c(=O)[nH]c(CSC8CCOCC8)nc7c6)CC5)C4)CC3)c(F)c2)C(=O)N1` (stereo not drawn) [Example 171, 3-((3-fluoro-4-(4-(3-(4-(((5-fluoro-4-oxo-2-(((tetrahydro-2H-pyran-4-yl)thio)methyl)-3,4-dihydroquinazolin-7-yl)oxy)methyl)piperidine-1-carbonyl)azetidin-1-yl)piperidin-1-yl)phenyl)amino)piperidine-2,6-dione], the DC50 is less than 30 nM.
With `O=C1CCC(Nc2ccc(N3CCC(C(=O)N4CC(N5CCC(COc6cc(F)c7c(=O)[nH]c(COC8CCOCC8)nc7c6)CC5)C4)CC3)c(F)c2)C(=O)N1` (stereo not drawn) [Example 177, 3-((3-fluoro-4-(4-(3-(4-(((5-fluoro-4-oxo-2-(((tetrahydro-2H-pyran-4-yl)oxy)methyl)-3,4-dihydroquinazolin-7-yl)oxy)methyl)piperidin-1-yl)azetidine-1-carbonyl)piperidin-1-yl)phenyl)amino)piperidine-2,6-dione] the figure was less than 30 nM; with `O=C1CCC(Nc2ccc(N3CCN(CCN4CCC(COc5cc(F)c6c(=O)[nH]c(CSC7CCOCC7)nc6c5)CC4)CC3)c(F)c2)C(=O)N1` (single isomer, unassigned) [Example 64b, 3-((3-fluoro-4-(4-(2-(4-(((5-fluoro-4-oxo-2-(((tetrahydro-2H-pyran-4-yl)thio)methyl)-3,4-dihydroquinazolin-7-yl)oxy)methyl)piperidin-1-yl)ethyl)piperazin-1-yl)phenyl)amino)piperidine-2,6-dione], less than 30 nM; with `O=C1CCC(Nc2ccc(N3CCC(N4CC(N5CCC(COc6cc(F)c7c(=O)[nH]c(CSC8CCOCC8)nc7c6)CC5)C4)CC3)cc2F)C(=O)N1` (stereo not drawn) [Example 221, 3-((2-fluoro-4-(4-(3-(4-(((5-fluoro-4-oxo-2-(((tetrahydro-2H-pyran-4-yl)thio)methyl)-3,4-dihydroquinazolin-7-yl)oxy)methyl)piperidin-1-yl)azetidin-1-yl)piperidin-1-yl)phenyl)amino)piperidine-2,6-dione formate], less than 30 nM.
Under `O=C1CCC(Nc2ccc(N3CCC(O)(CC(=O)N4CCC(COc5cc(F)c6c(=O)[nH]c(CSC7CCOCC7)nc6c5)CC4)CC3)cc2F)C(=O)N1` (stereo not drawn) [Example 170, 3-((2-fluoro-4-(4-(2-(4-(((5-fluoro-4-oxo-2-(((tetrahydro-2H-pyran-4-yl)thio)methyl)-3,4-dihydroquinazolin-7-yl)oxy)methyl)piperidin-1-yl)-2-oxoethyl)-4-hydroxypiperidin-1-yl)phenyl)amino)piperidine-2,6-dione] stands less than 30 nM.
